Experimental data: EP2970359B1, “FLUORINATED PYRIMIDINE ANALOGS AND METHODS OF USE THEREOF” (Epigenetics Pharma LLC, priority 2013, dated 2014)
pIC50: −log10 of the molar value. Where “and” joins values, the source holds several entries; their conditions need not be identical. Equal values may be shown once. Entries after “also recorded” stand apart in the source; their conditions may differ. Read-outs that look alike come from different tables or passages of the source.

How the values were obtained:
[1] = system: MDA-MB-231; assay: In vitro cytotoxicity (GI50), breast cancer cell line; settings: Homo sapiens
Method: (§1) The in vitro cytotoxicity was measured in the following cell lines: NCI-H460 (ATCC #HTB-177) (non-small cell lung), HCT-116 (ATCC #CCL-247) (colorectal), HL-60 (ATCC #CCL-240) (leukemia), and MDA-MB-231 (ATCC #HTB-26) (breast). Table 4. Growth Inhibition (GI50) Values (µM) for Selected Cell Lines.

[2] = system: NCI-H460; assay: In vitro cytotoxicity (GI50), non-small cell lung cancer cell line; settings: Homo sapiens
Method: as §1

[3] = system: HCT-116; assay: In vitro cytotoxicity (GI50), colorectal cancer cell line; settings: Homo sapiens
Method: as §1

[4] = system: L1210; settings: Table 3
[5] = system: HL-60; assay: In vitro cytotoxicity (GI50), leukemia cell line; assay type: cell-based; settings: Homo sapiens
Method: as §1

[6] = system: ACHN; assay: In vitro cytotoxicity, renal cancer cell line; assay type: cell-based; settings: Homo sapiens, Table 1, asterisk not explained
[7] = system: OVCAR-8; assay: In vitro cytotoxicity, ovarian cancer cell line; assay type: cell-based; settings: Homo sapiens, Table 1, asterisk not explained
[8] = system: THP-1 cells; assay: Giemsa stain of treated cells (morphology); assay type: cell-based; settings: compared to vehicle control, FIGURE 10
[9] = system: Kasumi-1 cells; assay: Giemsa stain of treated cells (morphology); assay type: cell-based; settings: compared with vehicle control, FIGURE 11
[10] = known; cleavage of the base at the 6-position of the cytosine ring; cited from earlier work
[11] = system: THP-1 leukemia cells; assay: Growth inhibition of leukemia cell line compared with decitabine; assay type: cell-based; settings: THP-1, equimolar concentrations; FIGURE 7
[12] = system: Kasumi-1 cells; assay: as above; assay type: cell-based; settings: Kasumi-1, equimolar concentrations; FIGURE 8
[13] = molecular target: T1, DNMT1 (Homo sapiens, UniProt P26358); assay: Western blot of DNMT1 in Kasumi-1 cells; assay type: cell-based; settings: two concentrations, FIGURE 9
T1 construct: endogenous in cells; host or cells: Kasumi-1

[14] = system: L1210; assay: In vitro cytotoxicity, leukemia cell line; settings: for pIC50: Mus musculus, L1210, read-out: In vitro cytotoxicity Leukemia L1210
[15] = system: P388; assay: In vitro cytotoxicity, leukemia cell line; settings: Mus musculus, P388, read-out: In vitro cytotoxicity Leukemia P388*
[16] = system: DNA methyltransferase (DNMT); assay: In vitro DNA methyltransferase inhibition in HCT-116 cells (EpiQuick DNA Methyltransferase Activity/Inhibition Assay Kit)
[17] = Stability in water; assay type: physicochemical
[18] = following subcutaneous administration; reported; cited from earlier work
[19] = MDA-MB-231, read-out: In vitro cytotoxicity Breast MDA-MB-231
[20] = NCI-H460, read-out: In vitro cytotoxicity NSCL NCI-H460
[21] = HCT-116, read-out: In vitro cytotoxicity Colon HCT-116
[22] = MDA-MB-231, read-out: Growth Inhibition (GI50) MDA-MB-231
[23] = NCI-H460, read-out: Growth Inhibition (GI50) NCI-H460
[24] = HCT-116, read-out: Growth Inhibition (GI50) HCT-116
[25] = HL-60, Table 4, read-out: Growth Inhibition (GI50) HL-60

T1 sequence (P26358 whole entry): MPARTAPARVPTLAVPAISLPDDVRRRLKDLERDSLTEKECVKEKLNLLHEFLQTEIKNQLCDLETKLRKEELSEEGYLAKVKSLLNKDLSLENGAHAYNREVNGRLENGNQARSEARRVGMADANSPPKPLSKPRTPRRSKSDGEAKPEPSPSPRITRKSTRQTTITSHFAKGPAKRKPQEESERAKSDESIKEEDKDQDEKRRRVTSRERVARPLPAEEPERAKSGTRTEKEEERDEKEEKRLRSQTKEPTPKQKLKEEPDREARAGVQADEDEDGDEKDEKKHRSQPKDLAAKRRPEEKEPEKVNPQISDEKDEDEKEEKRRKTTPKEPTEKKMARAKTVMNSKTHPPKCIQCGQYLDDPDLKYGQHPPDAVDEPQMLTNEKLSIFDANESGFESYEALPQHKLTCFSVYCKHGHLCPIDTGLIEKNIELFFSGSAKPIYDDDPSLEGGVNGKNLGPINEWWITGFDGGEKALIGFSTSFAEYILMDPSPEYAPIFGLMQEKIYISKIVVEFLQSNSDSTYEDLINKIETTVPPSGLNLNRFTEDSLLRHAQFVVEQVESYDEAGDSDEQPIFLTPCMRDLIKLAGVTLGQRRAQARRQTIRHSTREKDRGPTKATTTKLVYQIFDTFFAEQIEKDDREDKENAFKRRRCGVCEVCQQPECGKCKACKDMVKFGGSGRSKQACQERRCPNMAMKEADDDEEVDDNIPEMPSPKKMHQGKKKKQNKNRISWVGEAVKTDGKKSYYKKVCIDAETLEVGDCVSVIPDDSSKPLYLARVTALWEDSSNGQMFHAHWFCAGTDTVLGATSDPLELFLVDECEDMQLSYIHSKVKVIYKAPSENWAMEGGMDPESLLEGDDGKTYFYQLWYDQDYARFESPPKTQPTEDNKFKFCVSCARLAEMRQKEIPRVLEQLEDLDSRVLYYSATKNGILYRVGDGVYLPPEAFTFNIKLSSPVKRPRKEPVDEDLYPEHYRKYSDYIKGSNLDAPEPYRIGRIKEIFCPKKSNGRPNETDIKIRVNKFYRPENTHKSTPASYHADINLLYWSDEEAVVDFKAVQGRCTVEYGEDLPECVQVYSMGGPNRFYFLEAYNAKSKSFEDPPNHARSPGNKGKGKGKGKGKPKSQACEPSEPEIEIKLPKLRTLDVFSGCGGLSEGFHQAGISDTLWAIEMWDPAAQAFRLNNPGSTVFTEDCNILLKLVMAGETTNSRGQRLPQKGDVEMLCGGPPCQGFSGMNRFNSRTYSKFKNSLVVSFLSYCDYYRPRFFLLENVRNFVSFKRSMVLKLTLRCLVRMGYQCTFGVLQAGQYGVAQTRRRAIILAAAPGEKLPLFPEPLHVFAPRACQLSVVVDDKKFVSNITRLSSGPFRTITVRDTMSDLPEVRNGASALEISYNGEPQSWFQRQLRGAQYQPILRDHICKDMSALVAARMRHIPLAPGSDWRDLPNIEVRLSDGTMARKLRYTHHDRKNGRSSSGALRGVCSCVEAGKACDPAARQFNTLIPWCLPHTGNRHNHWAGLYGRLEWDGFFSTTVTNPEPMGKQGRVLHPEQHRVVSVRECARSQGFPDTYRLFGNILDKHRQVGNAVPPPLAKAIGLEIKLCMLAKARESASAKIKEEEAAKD

Row | Compound | GI50 [1, 22] | GI50 [2, 23] | GI50 [3, 24] | GI50 [5, 25] | pIC50 [1, 19] | pIC50 [2, 20] | pIC50 [3, 21] | pIC50 [14] | further results
1 | O=c1ncccn1[C@H]1O[C@H](CO)[C@@H](O)C1(F)F [NUC020] | – | – | – | – | – | – | – | – | GI50 [1, 19]: 213 µM; GI50 [2, 20]: 136 µM; GI50 [3, 21]: 279 µM; GI50 [4]: 346 µM
2 | NC1=NC(=O)N([C@@H]2O[C@H](CO)[C@@H](O)[C@H]2O)CN1 [5,6-dihydro-5-azacytidine, reference compound] | > 31.2 µM | 4.84 µM | 21.4 µM | 0.03 µM | – | – | – | – | –
3 | O=c1ncccn1[C@@H]1O[C@H](CO)[C@@H](O)C1(F)F [NUC019, 2'-deoxy-2',2'-difluorozebularine] | 166 µM | 136 µM | 310 µM | – | – | – | – | – | –
4 | Nc1ncn([C@H]2C[C@H](O)[C@@H](CO)O2)c(=O)n1 [Decitabine, 5-azadeoxycytidine, reference compound] | > 31.2 µM | 13 µM | > 31.2 µM | – | < 4.20 | 4.36 to 4.89 | < 4.20 | – | pIC50 [6]: < 3.00; pIC50 [7]: < 3.00; GI50 ([5]; HL-60, read-out: Growth Inhibition (GI50) HL-60): 0.27 µM; morphologic changes (Giemsa stain) [8]: morphologic changes suggestive of cell differentiation; morphologic changes (Giemsa stain) [9]: morphologic changes suggestive of cell differentiation; stability in water [10]: unstable in water
5 | Nc1ncn([C@@H]2O[C@H](CO)[C@@H](O)C2(F)F)c(=O)n1 [NUC013, 2',2'-difluoro-5-azadeoxycytidine] | > 31.2 µM | 4.39 µM | 4.54 µM | 1.51 µM | < 4.20 | 5.36 | 5.34 | 5.99 | GI50 ([3]; HCT-116): 4.54 µM; pIC50 [6]: 6.05; pIC50 [7]: 4.59; inhibitory effect on cell growth / cytoreduction compared with decitabine [11]: stronger inhibitory effect; also recorded: stronger cytoreduction; inhibitory effect on cell growth / cytoreduction compared with decitabine [12]: slightly weaker effect; also recorded: weaker cytoreduction; DNMT1 inhibition by Western blot compared with equimolar decitabine [13]: weaker DNMT1 inhibition; morphologic changes (Giemsa stain) [8]: morphologic changes suggestive of cell differentiation; morphologic changes (Giemsa stain) [9]: morphologic changes suggestive of cell differentiation; pIC50 [15]: 6.32; Percent Inhibition of DNMT ([16]; 1 µM, 24 hours, HCT-116 cells, one value per experiment (1-4)): 61.73% and 35.77% and 62.63%; potency as a DNMTI relative to 5-azacytidine ([16]; colon cancer cells, FIGURE 6): approximately 10 fold
6 | NC1=NC(=O)N([C@@H]2O[C@H](CO)[C@@H](O)C2(F)F)CN1 [NUC014, 2',2'-difluoro-5,6-dihydro-5-azadeoxycytidine] | – | – | – | – | < 4.51 | < 4.51 | < 4.51 | 4.04 | stability in an aqueous environment [17]: stable in an aqueous environment; hydrolytic cleavage at the 6-position of the cytosine ([17]; aqueous environment): does not undergo hydrolytic cleavage; cytotoxicity against leukemia cell line L1210 (in words) [14]: moderate cytotoxicity
7 | Nc1ccn([C@@H]2O[C@H](CO)[C@@H](O)C2(F)F)c(=O)n1 [gemcitabine, reference compound] | 0.72 µM | 0.02 µM | 0.01 µM | 0.03 µM | – | – | – | – | –
8 | Nc1ncn([C@@H]2O[C@H](CO)[C@@H](O)[C@H]2O)c(=O)n1 [Azacytidine, 5-azacytidine] | – | – | – | 0.44 µM | – | – | – | 5.62 to 5.77 | half-life [18]: 41 min
9 | O=c1ncccn1[C@@H]1O[C@H](CO)[C@@H](O)[C@H]1O [Zebularine, reference compound] | – | – | – | – | 3.84 | 4.00 | 4.32 | 3.97 | –
